Laboratory results as given in patent publication US20250270209A1 (INTERLINE THERAPEUTICS, INC., priority 2022, published 2025).

Tests used:
LRRK2 wild type enzyme = LRRK2 wild type enzyme (Homo sapiens, UniProt Q5S007); test: Biochemical Assay: LRRK2 TR-FRET (LanthaScreen) kinase assay with LRRKtide substrate; settings: LRRK2 Inhibition, Table 8
Experimental: 10 mM compound solution was prepared in DMSO. An 11-point, 3-fold dilution was performed, with highest concentration at 10 μM. A 10 mM compound DMSO solution was added to Labcyte LDV plate and the compound concentration of source plate was 10 mM. The 1st compound concentration of Inter plate(Labcyte 384 well PP plate) was 4.938×10^−1 mM which was prepared by transferring 1.5 μL of 10 mM compound from source plate to 28.9 μL DMSO. The 2nd compound concentration of Inter plate was 1.829×10^−2 mM which was prepared by transferring 60 nL of 10 mM compound from source plate to 32.7 μL DMSO. The 3rd compound concentration of Inter plate was 6.774×10^−4 mM which was prepared by transferring 2.5 nL of 10 mM compound from source plate to 36.9 μL DMSO. 100 nL of reference compound was dispensed in column 1 for low control wells and 100 nL of DMSO in column 24 for high control wells. Compounds were dispensed to column 2 to 23 of assay plate and backfilled with DMSO to a total volume of 100 nL.
A 2X LRRK2 enzyme solution (final concentration 3 nM) was prepared in assay buffer (Tris-HCl pH8.0:50 mM, MgCl2: 5 mM, EDTA: 1 mM, Brij-35:0.01%, 2 mM DTT). A 2× substrate solution was prepared: LRRK2 tide substrate (final concentration 400 nM) and ATP (final concentration 25 μM) in assay buffer. 5 μL 2× LRRK2 enzyme solution was dispensed to each well in assay plate by Multidrop. Assay plate was spun at 1,000 rpm for 1 min and incubated for 15 min at 23° C. 5 μL 2× ATP/LRRKtide solution was dispensed to each well in assay plate by Multidrop. Assay plate was spun at 1,000 rpm for 1 min and incubated for 120 min at 23° C.
(§1) A 2× detection solution was prepared: Tb-pERM (pLRRKtide) antibody (final concentration 0.25 nM) and EDTA (final concentration 10 mM) in TR-FRET dilution buffer. 10 μL 2× detection solution was dispensed to each well in assay plate to stop kinase reaction by Multidrop. Assay plate was spun at 1,000 rpm for 1 min and incubate for 30 min at 23° C. Assay plate was then read on Envision configured for LanthaScreen® TR-FRET. pS935 LRRK2 Cell Assay

[1] = target: T1, wild type LRRK2 overexpressed in recombinant HEK-293T cells (Homo sapiens, UniProt Q5S007); test: pS935 LRRK2 Cell Assay (HTRF, phospho-LRRK2 Ser935); type: cell-based; settings: LRRK2 Inhibition, Table 8, 2 hours compound incubation
T1 construct: host or cells: HEK293T (transient transfection with pCMV-LRRK2 WT plasmid)
Experimental: as §1
The following protocol describes an in-vitro method for measuring phosphorylation at Ser935 on wild type LRRK2 overexpressed in recombinant HEK-293T cells. The method is based on HTRF technology, which combines Fluorescence Resonance Energy Transfer (FRET) with Time-Resolved measurement (TR). Phospho-LRRK2 (Ser935) is detected in a sandwich assay format using two different specific antibodies, one labelled with Eu3+-Cryptate (donor) and the second with d2(acceptor).When the fluorophores are in close proximity, excitation of the donor with a light source (flash lamp) stimulates FRET to the acceptor, which in turn fluoresces at a specific wavelength (665 nm). The fluorescence emission at 615 nm from the donor is also measured to allow ratiometric reduction of data. The specific signal is proportional to phospho-LRRK2 (Ser935).
Plasmid transient transfection: DMEM medium, FBS, DPBS, Trans-IT, OPTI-MEM reagents were allowed to warm to room temperature. HEK293T cells were cultured in DMEM +10% FBS complete medium in T150 flasks till around 80% confluency before transfection. Then cells were washed with 10 mL PBS and detached with 3 mL 0.25% typinsin. 30×10E6 HEK293T cells were seeded in DMEM +10% FBS complete medium to a 15 cm dish.
DNA, TransIT-LT1, OPTI-MEM complex were prepared: […] OPTI-MEM was added to a 15 mL cone tube, then […] plasmid was added to OPTI-MEM and mixed, followed by addition of 60 μL TransIT-LT1 to the plasmid OPTI-MEM mixture and mixing. The resulting mixture was incubated for 15 minutes.
The above plasmid, DNA and OPTI-MEM mixture was added dropwise to the 15 cm dish, ensuring the drops were evenly distributed. The culture dish was gently rocked back and forth and from left to right to evenly distribute the complex. The tranfected dish was incubated for 24 hours at 37° C., and 5% CO2.
Transfected HEK293T was collected in the 15 cm dish. Media was aspirated from tissue culture dish, and washed by dispensing 10 mL 1× DPBS into 15 cm dish. 1× DPBS was aspirated and 3 mL trypsin was dispensed to 15 cm dish. The dish was incubated with trypsin at room temperature for 3 min until the cells were detached. 10 mL of DMEM +10% FBS medium were added to 15 cm dish and triturated to ensure homogenous cell suspensions.
Homogenous cell suspensions were transferred to a 50 mL tube, and centrifuged for 5 minutes at 1,000 rmp/min. The supernatant was aspirated and resuspended with 20 mL complete medium. 1 mL of cell suspension was transferred for cell counting. The cell suspension was diluted to 2× 10E5 cells/ml. 50 μL cell suspensions were added to a 384-well plate. The plate was quick spun at 800 rpm for 1 minute, then incubate overnight at 37° C., 5% CO2.
Compound dispensing: compound was diluted (10 mM DMSO stock solution) and added to assay plate (top concentration: 10 μM, 3 fold serial dilution, 9 doses) with duplicates by Tecan liquid handler. The DMSO concentration of each well was normalized to 0.2%. Plates were quick spun at 1,000 rpm for 1 minute. Plates were incubated at 37° C., 5% CO2 for 2 hours.
1× lysis buffer solution supplemented with blocking reagent was prepared (e.g. 1 mL lysis buffer 4X+3 mL water+40 μL stock blocking reagent 100X). Antibodies working solution was prepared by diluting 40-fold d2 and Cryptate antibodies with detection buffer(e.g. 1520 μL detection buffer+40 μL d2-antibody stock solution+[…] Cryptate-antibody stock solution).
After 2 hours incubation, cell plates were taken out from the incubator. […]

T1 sequence (Q5S007 whole entry): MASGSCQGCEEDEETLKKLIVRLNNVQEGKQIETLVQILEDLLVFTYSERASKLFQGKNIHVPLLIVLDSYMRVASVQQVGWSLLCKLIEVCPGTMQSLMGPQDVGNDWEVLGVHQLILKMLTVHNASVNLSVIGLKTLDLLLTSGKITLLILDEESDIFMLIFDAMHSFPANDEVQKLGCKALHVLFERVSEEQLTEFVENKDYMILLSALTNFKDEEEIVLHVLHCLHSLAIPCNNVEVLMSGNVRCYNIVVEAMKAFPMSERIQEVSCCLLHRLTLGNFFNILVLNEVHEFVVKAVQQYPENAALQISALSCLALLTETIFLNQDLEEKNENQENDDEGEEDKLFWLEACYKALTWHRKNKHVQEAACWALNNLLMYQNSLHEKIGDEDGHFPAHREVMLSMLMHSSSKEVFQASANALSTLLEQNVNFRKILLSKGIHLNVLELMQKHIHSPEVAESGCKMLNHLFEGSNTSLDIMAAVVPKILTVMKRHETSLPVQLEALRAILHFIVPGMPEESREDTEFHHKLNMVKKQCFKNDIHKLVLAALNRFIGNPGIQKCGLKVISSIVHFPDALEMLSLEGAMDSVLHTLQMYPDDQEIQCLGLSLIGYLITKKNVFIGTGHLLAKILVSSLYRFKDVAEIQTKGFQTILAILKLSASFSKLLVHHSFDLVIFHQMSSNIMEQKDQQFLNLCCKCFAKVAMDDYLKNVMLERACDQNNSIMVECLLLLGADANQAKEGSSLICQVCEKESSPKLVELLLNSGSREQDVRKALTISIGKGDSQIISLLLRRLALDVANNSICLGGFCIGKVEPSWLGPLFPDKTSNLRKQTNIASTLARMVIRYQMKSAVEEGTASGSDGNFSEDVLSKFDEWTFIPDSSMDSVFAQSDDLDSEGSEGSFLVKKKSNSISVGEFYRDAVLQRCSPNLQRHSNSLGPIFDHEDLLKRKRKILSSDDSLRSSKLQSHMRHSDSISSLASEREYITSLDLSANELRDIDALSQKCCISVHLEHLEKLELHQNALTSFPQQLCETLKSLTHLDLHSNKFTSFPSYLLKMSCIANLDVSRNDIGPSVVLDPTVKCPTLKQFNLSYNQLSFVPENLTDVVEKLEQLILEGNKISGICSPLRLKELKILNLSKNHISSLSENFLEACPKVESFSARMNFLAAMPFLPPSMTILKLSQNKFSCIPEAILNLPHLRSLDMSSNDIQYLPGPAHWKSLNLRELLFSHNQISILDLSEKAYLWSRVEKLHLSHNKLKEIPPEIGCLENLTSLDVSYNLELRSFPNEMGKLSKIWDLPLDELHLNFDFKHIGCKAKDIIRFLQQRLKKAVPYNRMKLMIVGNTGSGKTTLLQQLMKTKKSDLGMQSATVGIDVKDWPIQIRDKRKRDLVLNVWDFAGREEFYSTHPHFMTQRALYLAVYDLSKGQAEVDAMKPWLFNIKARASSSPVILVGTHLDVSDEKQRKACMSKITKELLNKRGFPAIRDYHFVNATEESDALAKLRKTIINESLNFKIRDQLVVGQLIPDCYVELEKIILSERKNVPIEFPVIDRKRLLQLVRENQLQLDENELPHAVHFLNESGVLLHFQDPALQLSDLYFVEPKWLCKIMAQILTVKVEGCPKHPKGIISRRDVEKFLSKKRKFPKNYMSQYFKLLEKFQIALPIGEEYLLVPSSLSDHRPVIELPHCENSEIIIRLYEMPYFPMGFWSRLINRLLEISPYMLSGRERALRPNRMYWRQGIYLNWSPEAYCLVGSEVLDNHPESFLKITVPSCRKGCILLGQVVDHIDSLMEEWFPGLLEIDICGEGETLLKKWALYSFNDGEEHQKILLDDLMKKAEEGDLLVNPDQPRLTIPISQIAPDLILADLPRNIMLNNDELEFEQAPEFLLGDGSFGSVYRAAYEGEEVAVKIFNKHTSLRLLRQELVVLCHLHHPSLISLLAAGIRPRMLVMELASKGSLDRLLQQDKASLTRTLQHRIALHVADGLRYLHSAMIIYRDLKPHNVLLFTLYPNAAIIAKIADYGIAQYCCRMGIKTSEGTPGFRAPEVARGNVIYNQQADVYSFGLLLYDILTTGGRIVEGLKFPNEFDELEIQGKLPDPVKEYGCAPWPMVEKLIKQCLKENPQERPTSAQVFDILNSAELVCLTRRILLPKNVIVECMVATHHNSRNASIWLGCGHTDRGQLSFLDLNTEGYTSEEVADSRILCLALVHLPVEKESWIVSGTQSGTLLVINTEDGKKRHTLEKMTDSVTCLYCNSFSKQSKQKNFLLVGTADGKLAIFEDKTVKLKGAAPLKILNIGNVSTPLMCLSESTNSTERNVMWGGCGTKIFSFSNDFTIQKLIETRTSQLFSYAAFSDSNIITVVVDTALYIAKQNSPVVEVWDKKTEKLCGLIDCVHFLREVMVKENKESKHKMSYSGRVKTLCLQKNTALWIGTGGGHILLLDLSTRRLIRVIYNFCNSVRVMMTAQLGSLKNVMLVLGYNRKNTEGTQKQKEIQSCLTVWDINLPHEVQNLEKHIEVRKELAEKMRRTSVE
Chain of LRRK2 wild type enzyme (Q5S007 whole entry): as above

## CN1CC(n2c(CC(=O)NCC3CC3)nc3cnc4ccc(C#N)cc4c32)CCC1=O (single isomer, unassigned) [Compound 90]
LRRK2 wild type enzyme
  IC50: 1.42 nM
[1]
  IC50: 799 nM

## CN1CC(n2c(CC(=O)NCC3CC3)nc3cnc4ccc(C#N)cc4c32)CCC1=O (single isomer, unassigned) [Compound 91]
LRRK2 wild type enzyme
  IC50: 40.4 nM
[1]
  IC50: 6910 nM

## CN1CC(n2c(C3CC(=O)N(CC4CC4)C3)nc3cnc4ccc(C#N)cc4c32)CCC1=O (single isomer, unassigned) [Compound 139]
LRRK2 wild type enzyme
  IC50: 56 nM
[1]
  IC50: 1600 nM

## CN1CC(n2c(C3CC(=O)N(CC4CC4)C3)nc3cnc4ccc(C#N)cc4c32)CCC1=O (single isomer, unassigned) [Compound 140]
LRRK2 wild type enzyme
  IC50: 42.1 nM
[1]
  IC50: > 10000 nM

## C[C@@H]1C[C@H](n2c(CC(=O)NC3CC3F)nc3cnc4ccc(C#N)cc4c32)CCO1 (stereo in doubt) [Compound 245, N-[(1R,2R)-2-fluorocyclopropyl]{3-[(2R,4R)-2-methyltetrahydro-2H-pyran-4-yl]-12-cyano-3,5,8-triazatricyclo[7.4.0.0^2,6]trideca-1(13),2(6),4,7,9,11-hexaen-4-yl}acetamide]
LRRK2 wild type enzyme
  IC50: 0.947 nM
[1]
  IC50: 71 nM

## C[C@@H]1C[C@H](n2c([C@@H]3CN(CC4CC4)S(=O)(=O)C3)nc3cnc4ccc(C#N)cc4c32)CCO1 [Compound 1, 2-[(4S)-2-(cyclopropylmethyl)-1,1-dioxo-1X^6,2-thiazolidin-4-yl]-1-[(2R,4R)-2-methyloxan-4-yl]-1H-imidazo[4,5-c]quinoline-8-carbonitrile]
LRRK2 wild type enzyme
  IC50: 2.45 nM
[1]
  IC50: 168 nM

## C[C@@H]1C[C@H](n2c([C@H]3CN(CC4CC4)S(=O)(=O)C3)nc3cnc4ccc(C#N)cc4c32)CCO1 [Compound 2, 2-[(4R)-2-(cyclopropylmethyl)-1,1-dioxo-1λ^6,2-thiazolidin-4-yl]-1-[(2R,4R)-2-methyloxan-4-yl]-1H-imidazo[4,5-c]quinoline-8-carbonitrile]
LRRK2 wild type enzyme
  IC50: 0.662 nM
[1]
  IC50: 39.2 nM

## C[C@@H]1C[C@H](n2c(C3CC(=O)N(CC4CC4)C3)nc3cnc4ccc(Cl)cc4c32)CCO1 (stereo partly drawn) [Compound 3, 4-{8-chloro-1-[(2R,4R)-2-methyloxan-4-yl]-1H-imidazo[4,5-c]quinolin-2-yl}-1-(cyclopropylmethyl)pyrrolidin-2-one]
LRRK2 wild type enzyme
  IC50: 1.21 nM
[1]
  IC50: 88.7 nM

## C[C@@H]1C[C@H](n2c(CC(=O)NC3CCOCC3)nc3cnc4ccc(C#N)cc4c32)CCO1 [Compound 4, 2-{8-cyano-1-[(2R,4R)-2-methyloxan-4-yl]-1H-imidazo[4,5-c]quinolin-2-yl}-N-(oxan-4-yl)acetamide]
LRRK2 wild type enzyme
  IC50: 0.551 nM
[1]
  IC50: 57.5 nM

## C[C@@H]1C[C@H](n2c(CC(=O)NC3CC3)nc3cnc4ccc(C#N)cc4c32)CCO1 [Compound 5, 2-{8-cyano-1-[(2R,4R)-2-methyloxan-4-yl]-1H-imidazo[4,5-c]quinolin-2-yl}-N-cyclopropylacetamide]
LRRK2 wild type enzyme
  IC50: 0.586 nM
[1]
  IC50: 35.6 nM

## CCNC(=O)Cc1nc2cnc3ccc(C#N)cc3c2n1[C@@H]1CCO[C@H](C)C1 [Compound 6, 2-{8-cyano-1-[(2R,4R)-2-methyloxan-4-yl]-1H-imidazo[4,5-c]quinolin-2-yl}-N-ethylacetamide]
LRRK2 wild type enzyme
  IC50: 0.58 nM
[1]
  IC50: 48.7 nM

## C[C@@H]1C[C@H](n2c(CC(=O)N[C@H](C)C3CC3)nc3cnc4ccc(C#N)cc4c32)CCO1 [Compound 7, 2-{8-cyano-1-[(2R,4R)-2-methyloxan-4-yl]-1H-imidazo[4,5-c]quinolin-2-yl}-N-[(1R)-1-cyclopropylethyl]acetamide]
LRRK2 wild type enzyme
  IC50: 0.794 nM
[1]
  IC50: 47.2 nM

## C[C@@H]1C[C@H](n2c(CC(=O)N[C@@H](C)C3CC3)nc3cnc4ccc(C#N)cc4c32)CCO1 [Compound 8, 2-{8-cyano-1-[(2R,4R)-2-methyloxan-4-yl]-1H-imidazo[4,5-c]quinolin-2-yl}-N-[(1S)-1-cyclopropylethyl]acetamide]
LRRK2 wild type enzyme
  IC50: 1.49 nM
[1]
  IC50: 118 nM

## C[C@@H]1C[C@H](n2c(CC(=O)N(C)C)nc3cnc4ccc(C#N)cc4c32)CCO1 [Compound 9, 2-{8-cyano-1-[(2R,4R)-2-methyloxan-4-yl]-1H-imidazo[4,5-c]quinolin-2-yl}-N,N-dimethylacetamide]
LRRK2 wild type enzyme
  IC50: 6.28 nM
[1]
  IC50: 605 nM

## C[C@@H]1C[C@H](n2c(CNC(=O)OC3CC3)nc3cnc4ccc(C#N)cc4c32)CCO1 [Compound 10, cyclopropyl N-({8-cyano-1-[(2R,4R)-2-methyloxan-4-yl]-1H-imidazo[4,5-c]quinolin-2-yl}methyl)carbamate]
LRRK2 wild type enzyme
  IC50: 1.92 nM
[1]
  IC50: 165 nM

## C[C@@H]1C[C@H](n2c(CNc3ncco3)nc3cnc4ccc(C#N)cc4c32)CCO1 [Compound 11, 1-[(2R,4R)-2-methyloxan-4-yl]-2-{[(1,3-oxazol-2-yl)amino]methyl}-1H-imidazo[4,5-c]quinoline-8-carbonitrile]
LRRK2 wild type enzyme
  IC50: 4.23 nM
[1]
  IC50: 609 nM

## C[C@@H]1C[C@H](n2c(CNc3nccn3C)nc3cnc4ccc(C#N)cc4c32)CCO1 [Compound 12, 2-{[(1-methyl-1H-imidazol-2-yl)amino]methyl}-1-[(2R,4R)-2-methyloxan-4-yl]-1H-imidazo[4,5-c]quinoline-8-carbonitrile]
LRRK2 wild type enzyme
  IC50: 9.07 nM
[1]
  IC50: > 10000 nM

## Cc1ccc(CN2CC(c3nc4cnc5ccc(C#N)cc5c4n3[C@@H]3CCO[C@H](C)C3)CC2=O)cn1 (stereo partly drawn) [Compound 13, 1-[(2R,4R)-2-methyloxan-4-yl]-2-{1-[(6-methylpyridin-3-yl)methyl]-5-oxopyrrolidin-3-yl}-1H-imidazo[4,5-c]quinoline-8-carbonitrile]
LRRK2 wild type enzyme
  IC50: 1.19 nM
[1]
  IC50: 180 nM

## CC(C)NC(=O)Cc1nc2cnc3ccc(C#N)cc3c2n1[C@@H]1CCO[C@H](C)C1 [Compound 14, 2-{8-cyano-1-[(2R,4R)-2-methyloxan-4-yl]-1H-imidazo[4,5-c]quinolin-2-yl}-N-(propan-2-yl)acetamide]
LRRK2 wild type enzyme
  IC50: 7.01 nM
[1]
  IC50: 43.7 nM
